The test system of one series is hCMEC/D3 cells. It counts as in vitro ADME, human. To be noted: either individually or in combination, p<0.05, two-way ANOVA.
For series [1] the following is noted: cited from earlier work.

The structures appear in SMILES notation.

As for `C[C@@H]1CCO[C@H]2Cn3cc(C(=O)NCc4ccc(F)cc4F)c(=O)c(O)c3C(=O)N12` [Dolutegravir], the “Intracellular accumulation compared with tenofovir or emtricitabine” value in the series with hCMEC/D3 cells is recorded as “significantly higher”. In series [1], the LogP is reported as 1.10.

The values are drawn from publication PMC6486649 (Analytica chimica acta, 2019).
